Reference: patent publication US9296741B2, “Bromodomain inhibitors” (priority 2012, dated 2016)

Columns and labels:
[1] = target: human BRD4 first bromodomain (BDI_K57-E168) (Homo sapiens (Human), UniProt O60885); test: TR-FRET bromodomain binding assay, BRD4 first bromodomain
[2] = target: human BRD4 second bromodomain (BDII_E352-M457) (Homo sapiens (Human), UniProt O60885); test: TR-FRET bromodomain binding assay, BRD4 second bromodomain
[3] = system: breast cancer cell line MX-1; test: MX-1 cell line proliferation assay; type: cell-based, human; details: Homo sapiens, MX1, 72 h; MX-1 cells, 3-day proliferation, Cell Titer Glo; read-out: Cellular proliferation: EC50
[4] = Human liver microsome stability assay; type: in vitro ADME; details: both sexes, human, microsomes, pH 7.4
[5] = Rat liver microsome stability assay; type: in vitro ADME; details: rat liver microsomes (male Sprague-Dawley), 0.5 μM test compound, pH 7.4, 37° C.; for half-life at 0.5 μM: 0.25 mg/mL microsomal protein, read-out: Stability in rat liver microsomes (t1/2 in minutes)

SMILES: Cn1cc(-c2ccccc2Oc2ccccc2)c2cc[nH]c2c1=O [Example 1, 6-methyl-4-(2-phenoxyphenyl)-1,6-dihydro-7H-pyrrolo[2,3-c]pyridin-7-one]
- Ki [1]: 136 nM
- Ki [2]: 41 nM
- EC50 [3]: 137 nM
- half-life at 0.5 μM [4]: 9 min
- Stability in rat liver microsomes (t1/2 in minutes) ([5]; […] microsomal protein): 1 min

SMILES: Cn1cc(-c2cc(NS(C)(=O)=O)ccc2Oc2ccccc2C#N)c2cc[nH]c2c1=O [Example 25, N-[4-(2-cyanophenoxy)-3-(6-methyl-7-oxo-6,7-dihydro-1H-pyrrolo[2,3-c]pyridin-4-yl)phenyl]methanesulfonamide]
- Ki [1]: 3 nM
- Ki [2]: 3.6 nM
- EC50 [3]: 56.2 nM

SMILES: CN1CCC(NC(=O)c2ccc(Oc3ccc(F)cc3F)c(-c3cn(C)c(=O)c4[nH]ccc34)c2)C1=O (stereo not shown) [Example 53, 4-(2,4-difluorophenoxy)-3-(6-methyl-7-oxo-6,7-dihydro-1H-pyrrolo[2,3-c]pyridin-4-yl)-N-(1-methyl-2-oxopyrrolidin-3-yl)benzamide]
- Ki [1]: 62.2 nM
- Ki [2]: 5.4 nM
- EC50 [3]: 76.5 nM

SMILES: CCS(=O)(=O)Nc1ccc(OC2CCOC2)c(-c2cn(C)c(=O)c3[nH]ccc23)c1 (stereo not shown) [Example 66, N-[3-(6-methyl-7-oxo-6,7-dihydro-1H-pyrrolo[2,3-c]pyridin-4-yl)-4-(tetrahydrofuran-3-yloxy)phenyl]ethanesulfonamide]
- Ki [1]: 0.74 nM
- Ki [2]: 3.4 nM
- EC50 [3]: 33.2 nM
- half-life at 0.5 μM [4]: > 120 min
- half-life at 0.5 μM [5]: > 120 min

SMILES: COC(=O)c1cc2c(-c3ccccc3Oc3ccccc3)cn(C)c(=O)c2n1C [Example 68, methyl 1,6-dimethyl-7-oxo-4-(2-phenoxyphenyl)-6,7-dihydro-1H-pyrrolo[2,3-c]pyridine-2-carboxylate]
- Ki [1]: 1700 nM
- Ki [2]: 2550 nM
- EC50 [3]: 5900 nM

SMILES: CCOC(=O)c1cc2c(-c3cc(N(CC)S(C)(=O)=O)ccc3Oc3ccccc3)nn(C)c(=O)c2[nH]1 [Example 76, ethyl 4-{5-[ethyl(methylsulfonyl)amino]-2-phenoxyphenyl}-6-methyl-7-oxo-6,7-dihydro-1H-pyrrolo[2,3-d]pyridazine-2-carboxylate]
- Ki [1]: 65.8 nM
- Ki [2]: 29.7 nM
- EC50 [3]: 290 nM

SMILES: CCNC(=O)c1cc2c(-c3cc(NS(C)(=O)=O)ccc3Oc3ccccc3)nn(C)c(=O)c2[nH]1 [Example 81, N-ethyl-6-methyl-4-{5-[(methylsulfonyl)amino]-2-phenoxyphenyl}-7-oxo-6,7-dihydro-1H-pyrrolo[2,3-d]pyridazine-2-carboxamide]
- Ki [1]: 9.5 nM
- Ki [2]: 0.99 nM
- EC50 [3]: 103 nM

SMILES: Cn1cc(-c2ccccc2Oc2ccccc2)c2cc(-c3ccccc3)[nH]c2c1=O [Example 88, 6-methyl-4-(2-phenoxyphenyl)-2-phenyl-1,6-dihydro-7H-pyrrolo[2,3-c]pyridin-7-one]
- Ki [1]: 635 nM
- Ki [2]: 236 nM
- EC50 [3]: > 3000 nM
- half-life at 0.5 μM [4]: 23 min
- half-life at 0.5 μM [5]: 12 min

SMILES: Cn1cc(-c2cc(NS(C)(=O)=O)ccc2Oc2ccccc2)c2cc(CO)[nH]c2c1=O [Example 89, N-{3-[2-(hydroxymethyl)-6-methyl-7-oxo-6,7-dihydro-1H-pyrrolo[2,3-c]pyridin-4-yl]-4-phenoxyphenyl}methanesulfonamide]
- Ki [1]: 1.6 nM
- Ki [2]: 2.1 nM
- EC50 [3]: 25.2 nM

SMILES: CCS(=O)(=O)Nc1ccc(Oc2ccc(C#N)cc2)c(-c2cn(C)c(=O)c3[nH]ccc23)c1 [Example 90, N-[4-(4-cyanophenoxy)-3-(6-methyl-7-oxo-6,7-dihydro-1H-pyrrolo[2,3-c]pyridin-4-yl)phenyl]ethanesulfonamide]
- Ki [1]: 4 nM
- Ki [2]: 6.8 nM
- EC50 [3]: 16.8 nM

SMILES: Cn1cc(-c2cc(NS(=O)(=O)CCF)ccc2Oc2ccc(C#N)cc2)c2cc[nH]c2c1=O [Example 113, N-[4-(4-cyanophenoxy)-3-(6-methyl-7-oxo-6,7-dihydro-1H-pyrrolo[2,3-c]pyridin-4-yl)phenyl]-2-fluoroethanesulfonamide]
- Ki [1]: 47.4 nM
- Ki [2]: 381 nM
- EC50 [3]: > 3000 nM

SMILES: CCS(=O)(=O)Nc1ccc(OCc2cc(C)nn2C)c(-c2cn(C)c(=O)c3[nH]ccc23)c1 [Example 143, N-{4-[(1,3-dimethyl-1H-pyrazol-5-yl)methoxy]-3-(6-methyl-7-oxo-6,7-dihydro-1H-pyrrolo[2,3-c]pyridin-4-yl)phenyl}ethanesulfonamide]
- Ki [1]: 22.3 nM
- Ki [2]: 107 nM
- EC50 [3]: 370 nM

SMILES: Cn1cc(-c2cc(S(C)(=O)=O)ccc2OC2CCCC2)c2cc[nH]c2c1=O [Example 216, 4-[2-(cyclopentyloxy)-5-(methylsulfonyl)phenyl]-6-methyl-1,6-dihydro-7H-pyrrolo[2,3-c]pyridin-7-one]
- Ki [1]: 1.8 nM
- Ki [2]: 1.8 nM
- EC50 [3]: 6.6 nM

SMILES: Cn1cc(-c2cc(S(C)(=O)=O)ccc2OCCC2CC2)c2cc[nH]c2c1=O [Example 219, 4-[2-(2-cyclopropylethoxy)-5-(methylsulfonyl)phenyl]-6-methyl-1,6-dihydro-7H-pyrrolo[2,3-c]pyridin-7-one]
- Ki [1]: 3.6 nM
- Ki [2]: 2.9 nM
- EC50 [3]: 17.7 nM

SMILES: CC1CCC(Oc2ccc(S(C)(=O)=O)cc2-c2cn(C)c(=O)c3[nH]ccc23)CC1 (stereo not shown) [Example 233, 6-methyl-4-{2-[(4-methylcyclohexyl)oxy]-5-(methylsulfonyl)phenyl}-1,6-dihydro-7H-pyrrolo[2,3-c]pyridin-7-one]
- Ki [1]: 2.2 nM
- Ki [2]: 1.5 nM
- EC50 [3]: 6.9 nM

SMILES: Cn1cc(-c2cc(S(C)(=O)=O)ccc2OCC2CCC2)c2cc[nH]c2c1=O [Example 234, 4-[2-(cyclobutylmethoxy)-5-(methylsulfonyl)phenyl]-6-methyl-1,6-dihydro-7H-pyrrolo[2,3-c]pyridin-7-one]
- Ki [1]: 3 nM
- Ki [2]: 3.4 nM
- EC50 [3]: 15.9 nM

SMILES: CNS(=O)(=O)c1ccc(NCC2CC2)c(-c2cn(C)c(=O)c3[nH]ccc23)c1 [Example 239, 4-[(cyclopropylmethyl)amino]-N-methyl-3-(6-methyl-7-oxo-6,7-dihydro-1H-pyrrolo[2,3-c]pyridin-4-yl)benzenesulfonamide]
- Ki [1]: 2.8 nM
- Ki [2]: 2.4 nM
- EC50 [3]: 10.1 nM

SMILES: CCOc1ccc(S(C)(=O)=O)cc1-c1cn(C)c(=O)c2[nH]ccc12 [Example 259, 4-[2-ethoxy-5-(methylsulfonyl)phenyl]-6-methyl-1,6-dihydro-7H-pyrrolo[2,3-c]pyridin-7-one]
- Ki [1]: 24.2 nM
- Ki [2]: 20.3 nM
- EC50 [3]: 123 nM
- half-life at 0.5 μM [4]: 117 min
- half-life at 0.5 μM [5]: 87 min

SMILES: Cc1cc(OCC2CC2)c(-c2cn(C)c(=O)c3[nH]ccc23)cc1NS(C)(=O)=O [Example 263, N-[4-(cyclopropylmethoxy)-2-methyl-5-(6-methyl-7-oxo-6,7-dihydro-1H-pyrrolo[2,3-c]pyridin-4-yl)phenyl]methanesulfonamide]
- Ki [1]: 8.8 nM
- Ki [2]: 16.3 nM
- EC50 [3]: 76.9 nM
- half-life at 0.5 μM [4]: 70 min
- half-life at 0.5 μM [5]: 72 min

SMILES: CCS(=O)(=O)c1ccc(OC2CCSCC2)c(-c2cn(C)c(=O)c3[nH]ccc23)c1 [Example 264, 4-[5-(ethylsulfonyl)-2-(tetrahydro-2H-thiopyran-4-yloxy)phenyl]-6-methyl-1,6-dihydro-7H-pyrrolo[2,3-c]pyridin-7-one]
- Ki [1]: 1.2 nM
- Ki [2]: 1.2 nM
- EC50 [3]: 17.8 nM
- half-life at 0.5 μM [4]: 14 min
- half-life at 0.5 μM [5]: 6 min

SMILES: CCS(=O)(=O)c1ccc(OC2CCS(=O)(=O)CC2)c(-c2cn(C)c(=O)c3[nH]ccc23)c1 [Example 265, 4-{2-[(1,1-dioxidotetrahydro-2H-thiopyran-4-yl)oxy]-5-(ethylsulfonyl)phenyl}-6-methyl-1,6-dihydro-7H-pyrrolo[2,3-c]pyridin-7-one]
- Ki [1]: 9 nM
- Ki [2]: 35.6 nM
- EC50 [3]: > 3000 nM
- half-life at 0.5 μM [4]: > 120 min
- half-life at 0.5 μM [5]: > 120 min

SMILES: CN(C)S(=O)(=O)c1cnc(Oc2ccc(F)cc2F)c(-c2cn(C)c(=O)c3[nH]ccc23)c1 [Example 266, 6-(2,4-difluorophenoxy)-N,N-dimethyl-5-(6-methyl-7-oxo-6,7-dihydro-1H-pyrrolo[2,3-c]pyridin-4-yl)pyridine-3-sulfonamide]
- Ki [1]: 21.5 nM
- Ki [2]: 7.8 nM
- EC50 [3]: 56.4 nM
- half-life at 0.5 μM [4]: 8 min
- half-life at 0.5 μM [5]: 20 min

SMILES: Cn1cc(-c2cc(S(C)(=O)=O)ccc2Oc2ccc(F)cc2F)c2cc(COc3cccnc3)[nH]c2c1=O [Example 289, 4-[2-(2,4-difluorophenoxy)-5-(methylsulfonyl)phenyl]-6-methyl-2-[(pyridin-3-yloxy)methyl]-1,6-dihydro-7H-pyrrolo[2,3-c]pyridin-7-one]
- Ki [1]: 12.4 nM
- Ki [2]: 310 nM
- EC50 [3]: > 3000 nM

SMILES: CCS(=O)(=O)N(CCOC)c1ccc(Oc2ccc(F)cc2F)c(-c2cn(C)c(=O)c3[nH]ccc23)c1 [Example 341, N-[4-(2,4-difluorophenoxy)-3-(6-methyl-7-oxo-6,7-dihydro-1H-pyrrolo[2,3-c]pyridin-4-yl)phenyl]-N-(2-methoxyethyl)ethanesulfonamide]
- Ki [1]: 295 nM
- Ki [2]: 81.7 nM
- EC50 [3]: 622 nM

SMILES: CCS(=O)(=O)N(CCN1CCCC1=O)c1ccc(Oc2ccc(F)cc2F)c(-c2cn(C)c(=O)c3[nH]ccc23)c1 [Example 344, N-[4-(2,4-difluorophenoxy)-3-(6-methyl-7-oxo-6,7-dihydro-1H-pyrrolo[2,3-c]pyridin-4-yl)phenyl]-N-[2-(2-oxopyrrolidin-1-yl)ethyl]ethanesulfonamide]
- Ki [1]: 430 nM
- Ki [2]: 136 nM
- EC50 [3]: 636 nM
